Measured values taken from publication PMC7694037, “Quinolizidine-Derived Lucanthone and Amitriptyline Analogues Endowed with Potent Antileishmanial Activity” (Pharmaceuticals, 2020).
≈ marks a conversion by molar mass, not a printed value. Like-named read-outs stand apart in the source and are kept apart here.

Key:
[1] = Cytotoxicity against Vero-76 cells (crystal violet staining); format: cell-based, Cercopithecus Aethiops; settings: Cercopithecus aethiops (African green monkey)
Protocol: (§1) The cytotoxicity of lucanthone was also tested for comparison. […] The relevant selectivity index (SI)—a parameter that quantifies the preferential antileishmanial activity of a compound in relation to mammalian cell toxicity (CC50/IC50)—is tabulated in Table 2. […] The replacement of the 4-methyl substituent with an amino group in compound 14, while preserving good antileishmanial activity, led to a further substantial decrease of cytotoxicity, with a resultantly safer profile (SI = 16.2 and 16.9 for the two Leishmania species).
(§2) Vero-76 cells (ATCC CRL 1587 Cercopithecus Aethiops) were seeded at an initial density of 4 × 10^5 cells/mL in 24-well plates, in culture medium (Dulbecco’s modified eagle’s medium (D-MEM) with L-glutamine, supplemented with fetal bovine serum (FBS), 0.025 g/L kanamycin). Cell cultures were then incubated at 37 °C in a humidified, 5% CO2 atmosphere in the absence or presence of serial dilutions of test compounds. Cell viability was determined after 48–96 h at 37 °C by the Crystal violet staining method. The results are expressed as CC50, which is the concentration of compound necessary to inhibit cell growth by 50%. Each CC50 value is the mean and standard deviation of at least three separate experiments performed in duplicate.

[2] = system: Vero-76 cells; experiment: as above; format: cell-based, Cercopithecus Aethiops; settings: for S.I. L. infantum: CC50 Vero-76 / IC50 L. infantum promastigotes; for S.I. L. tropica: CC50 Vero-76 / IC50 L. tropica promastigotes; for selectivity index (SI), range over both Leishmania species: Vero-76 cells vs L. tropica and L. infantum promastigotes
Protocol: as §1, §2

[3] = system: Leishmania tropica promastigotes; experiment: Antileishmanial activity against L. tropica promastigotes (MTT assay); settings: for IC50: 72 h, IC50 ± SD; for Ratio IC50 Miltef./IC50 Compd. (L. tropica): ratio between IC50 of miltefosine and that of each compound, L. tropica promastigotes
Protocol: (§5) Promastigote stage of L. infantum strain MHOM/TN/80/IPT1 (kindly provided by Dr. M. Gramiccia, ISS, Roma) and L. tropica (MHOM/SY/2012/ISS3130) were cultured in RPMI 1640 medium (EuroClone) supplemented with 10% heat-inactivated fetal calf serum (EuroClone, Milan Italy), 20 mM Hepes and 2 mM L-glutamine at 24 °C. […] Compounds were dissolved in DMSO and then diluted with medium to achieve the required concentrations. Drugs were placed in 96 wells round-bottom microplates and seven serial dilutions made. Miltefosine was used as reference anti-Leishmania drug. Parasites were diluted in complete medium to 5 × 10^6 parasites/mL and 100 μL of the suspension was seeded into the plates, incubated at 24 °C for 72 h and then 20 µL of MTT solution (5 mg/mL) was added into each well for 3 h. The plates were then centrifuged, the supernatants were discarded and the resulting pellets were dissolved in 100 µL of lysing buffer consisting of 20% (w/v) of a solution of SDS (Sigma), 40% DMF (Merck, Milan Italy) in H2O. The absorbance was measured spectrophotometrically at a test wavelength of 550 nm and a reference wavelength of 650 nm.

[4] = system: L. infantum promastigotes; experiment: Antileishmanial activity against L. infantum promastigotes (MTT assay); settings: for IC50: Leishmania infantum, 72 h, read-out: IC50 L. infantum; for Ratio IC50 Miltef./IC50 Compd. (L. infantum): ratio between IC50 of miltefosine and that of each compound, L. infantum promastigotes
Protocol: as §5

[5] = cited from earlier work
[6] = Cytotoxicity against PMA-differentiated THP-1 cells (MTT); format: cell-based, human; settings: human
Protocol: (§3) The cytotoxic concentration (CC50) against THP-1 differentiated into macrophages (Table 3), used for testing the activity against the amastigote stage, is also reported.
(§4) THP-1 cells were plated at 5 × 10^5 cells/mL in 96 wells flat bottom microplates and treated with 0.1 µM PMA for 48 h to achieve differentiation into macrophages. Cells were then treated with serial dilutions of test compounds and cell proliferation evaluated using the MTT assay described for promastigotes.

[7] = system: PMA-differentiated THP-1; experiment: as above; format: cell-based, human; settings: CC50 THP-1 / IC50 L. infantum amastigotes
Protocol: as §3, §4

[8] = system: intramacrophagic amastigotes of L. infantum; experiment: Intracellular amastigote susceptibility assay in PMA-differentiated THP-1 macrophages; format: cell-based; settings: Leishmania infantum; intramacrophagic amastigotes in THP-1 macrophages, 72 h; mean ± SD; read-out: L. infantum Amastigotes IC50
Protocol: Finally, for a better idea of their real value as antileishmanial agents, compounds 14 and 17, displaying the most promising activity against promastigote stage and the highest SI values, together with lucanthone and the corresponding quinolizidine analog 1, were tested against the intramacrophagic amastigote stage of L. infantum.
THP-1 cells (human acute monocytic leukemia) were maintained in RPMI supplemented with 10% FBS (EuroClone), 50 µM 2-mercaptoethanol, 20 mM Hepes and 2 mM glutamine, at 37 °C in 5% CO2. For Leishmania infections, THP-1 cells were plated at 5 × 10^5 cells/mL in 16-chamber Lab-Tek culture slides (Nunc, Milan, Italy) and treated with 0.1 µM phorbol myristate acetate (PMA, Sigma) for 48 h to achieve differentiation into macrophages. Cells were washed and infected with metacyclic L. infantum promastigotes at a macrophage/promastigote ratio of 1/10 for 24 h. Cell monolayers were then washed and incubated in the presence of test compounds for 72 h. Slides were fixed with methanol and stained with Giemsa. The percentages of infected macrophages among treated and non-treated cells were determined by light microscopy.

[9] = system: Mycobacterium tuberculosis H37Ra; design: method as in PMID 3653383; settings: cited from earlier work
[10] = Leishmania tropica, read-out: IC50 L. tropica, promastigotes, MTT, 72 h
[11] = i.p., doses up to 200–350 mg/kg, once a day for five consecutive days, mice inoculated with leukemia P388 cells

Compound: Cc1ccc(NCCC2CCCN3CCCCC23)c2c(=O)c3ccccc3sc12 (stereo not shown) [Compound 2]
- CC50 [1]: 22.9 ± 2.3 µM
- S.I. L. infantum [2]: 2.2
- S.I. L. tropica [2]: 3.7
- IC50 [3, 10]: 6.27 ± 2.75 µM
- Ratio IC50 Miltef./IC50 Compd. (L. tropica) [3]: 6.9
- IC50 [4]: 10.6 ± 3.78 µM
- Ratio IC50 Miltef./IC50 Compd. (L. infantum) [4]: 2.95

Compound: Cc1ccc(NCCCC2CCCN3CCCCC23)c2c(=O)c3ccccc3sc12 (stereo not shown) [Compound 3]
- IC50 [3, 10]: 8.89 ± 3.02 µM
- Ratio IC50 Miltef./IC50 Compd. (L. tropica) [3]: 4.87
- IC50 [4]: 17.2 ± 1.31 µM
- Ratio IC50 Miltef./IC50 Compd. (L. infantum) [4]: 1.8

Compound: Cc1ccc(NC[C@@H]2CCC[N+]3(C)CCCC[C@H]23)c2c(=O)c3ccccc3sc12.[I-] (stereo partly drawn) [Compound 4, (1S,9aR)-5-methyl-1-{[(4-methyl-9-oxo-9H-thioxanthen-1-yl)amino]methyl}-decahydroquinolizin-5-ium iodide]
- IC50 [3, 10]: 17.8 ± 5.61 µM
- Ratio IC50 Miltef./IC50 Compd. (L. tropica) [3]: 2.4
- IC50 [4]: 13 ± 2.8 µM
- Ratio IC50 Miltef./IC50 Compd. (L. infantum) [4]: 2.4
- melting point: 147 to 150 °C

Compound: COc1ccc2sc3c(C)ccc(NCC4CCCN5CCCCC45)c3c(=O)c2c1 (stereo not shown) [Compound 5]
- IC50 [3, 10]: 8.16 ± 5.23 µM
- Ratio IC50 Miltef./IC50 Compd. (L. tropica) [3]: 5.3
- IC50 [4]: 8.99 ± 3.86 µM
- Ratio IC50 Miltef./IC50 Compd. (L. infantum) [4]: 3.5
- mortality [5, 11]: no mortality

Compound: COc1ccc2sc3c(C)ccc(NCCCC4CCCN5CCCCC45)c3c(=O)c2c1 (stereo not shown) [Compound 7]
- IC50 [3, 10]: 12 ± 5.24 µM
- Ratio IC50 Miltef./IC50 Compd. (L. tropica) [3]: 3.6
- IC50 [4]: 19.7 ± 5.79 µM
- Ratio IC50 Miltef./IC50 Compd. (L. infantum) [4]: 1.6

Compound: O=c1c2ccccc2sc2c([N+](=O)[O-])ccc(NCC3CCCN4CCCCC34)c12 (stereo not shown) [Compound 8]
- IC50 [3, 10]: 19.2 ± 9.33 µM
- Ratio IC50 Miltef./IC50 Compd. (L. tropica) [3]: 2.25
- IC50 [4]: 38.7 ± 7.67 µM
- Ratio IC50 Miltef./IC50 Compd. (L. infantum) [4]: 0.8

Compound: O=c1c2ccccc2sc2c([N+](=O)[O-])ccc(NCCC3CCCN4CCCCC34)c12 (stereo not shown) [Compound 9]
- IC50 [3, 10]: 4.64 ± 1.12 µM
- Ratio IC50 Miltef./IC50 Compd. (L. tropica) [3]: 9.3
- IC50 [4]: 9.39 ± 4.34 µM
- Ratio IC50 Miltef./IC50 Compd. (L. infantum) [4]: 3.3
- mortality [5, 11]: no mortality

Compound: O=c1c2ccccc2sc2c([N+](=O)[O-])ccc(NCCCC3CCCN4CCCCC34)c12 (stereo not shown) [Compound 10]
- IC50 [3, 10]: 11.1 ± 3.3 µM
- Ratio IC50 Miltef./IC50 Compd. (L. tropica) [3]: 3.9
- IC50 [4]: 22.3 ± 3.3 µM
- Ratio IC50 Miltef./IC50 Compd. (L. infantum) [4]: 1.4

Compound: COc1ccc2sc3c([N+](=O)[O-])ccc(NCC4CCCN5CCCCC45)c3c(=O)c2c1 (stereo not shown) [Compound 11]
- IC50 [3, 10]: 6.35 ± 1.46 µM
- Ratio IC50 Miltef./IC50 Compd. (L. tropica) [3]: 6.8
- IC50 [4]: 13 ± 0.97 µM
- Ratio IC50 Miltef./IC50 Compd. (L. infantum) [4]: 2.4

Compound: COc1ccc2sc3c([N+](=O)[O-])ccc(NCCCC4CCCN5CCCCC45)c3c(=O)c2c1 (stereo not shown) [Compound 12]
- IC50 [3, 10]: 7.39 ± 2.31 µM
- Ratio IC50 Miltef./IC50 Compd. (L. tropica) [3]: 5.85
- IC50 [4]: 7.89 ± 2.41 µM
- Ratio IC50 Miltef./IC50 Compd. (L. infantum) [4]: 3.95

Compound: Nc1ccc(NCC2CCCN3CCCCC23)c2c(=O)c3ccccc3sc12 (stereo not shown) [Compound 13]
- IC50 [3, 10]: 2.87 ± 0.43 µM
- Ratio IC50 Miltef./IC50 Compd. (L. tropica) [3]: 15.1
- IC50 [4]: 5.23 ± 1.83 µM
- Ratio IC50 Miltef./IC50 Compd. (L. infantum) [4]: 6.0

Compound: Nc1ccc(NCCC2CCCN3CCCCC23)c2c(=O)c3ccccc3sc12 (stereo not shown) [Compound 14, 4-amino-1-(quinolizidinylethyl)aminothioxanthen-9-one]
- CC50 [1]: 61.4 ± 2.6 µM
- S.I. L. infantum [2]: 16.9
- S.I. L. tropica [2]: 16.2
- selectivity index (SI), range over both Leishmania species [2]: 16–24
- IC50 [3, 10]: 3.8 ± 1.82 µM
- Ratio IC50 Miltef./IC50 Compd. (L. tropica) [3]: 11.4
- CC50 [6]: 21.7 ± 8.83 µM
- SI (THP-1) [7]: 10.2
- IC50 [8]: 2.13 ± 1.35 µM
- IC50 [4]: 3.63 ± 0.78 µM
- Ratio IC50 Miltef./IC50 Compd. (L. infantum) [4]: 8.6
- mortality ([5]; mouse, in vivo, 260 mg/kg): no mortality

Compound: Nc1ccc(NCCCC2CCCN3CCCCC23)c2c(=O)c3ccccc3sc12 (stereo not shown) [Compound 15]
- IC50 [3, 10]: 3.72 ± 1.66 µM
- Ratio IC50 Miltef./IC50 Compd. (L. tropica) [3]: 11.6
- IC50 [4]: 4.22 ± 1.95 µM
- Ratio IC50 Miltef./IC50 Compd. (L. infantum) [4]: 7.4

Compound: Cc1ccc(NCC2CCCN3CCCCC23)c2c(=O)c3ccccc3oc12 (stereo not shown) [Compound 16]
- IC50 [3, 10]: 6.56 ± 3.08 µM
- Ratio IC50 Miltef./IC50 Compd. (L. tropica) [3]: 6.6
- IC50 [4]: 8.23 ± 1.51 µM
- Ratio IC50 Miltef./IC50 Compd. (L. infantum) [4]: 3.8

Compound: C(=C1c2ccccc2-c2ccccc21)[C@@H]1CCCN2CCCC[C@H]12 [Compound 17, 9-(quinolizidinylmethylidene)fluorene]
- CC50 [1]: 83.4 ± 3 µM
- S.I. L. infantum [2]: 19.2
- S.I. L. tropica [2]: 23.9
- selectivity index (SI), range over both Leishmania species [2]: 16–24
- IC50 [3, 10]: 3.5 µM
- Ratio IC50 Miltef./IC50 Compd. (L. tropica) [3]: 12.4
- IC50 ([3]; read-out: IC50 L. tropica, promastigotes, MTT): 3.49 ± 1.02 µM
- CC50 [6]: 53.9 ± 3.98 µM
- SI (THP-1) [7]: 20.0
- MIC Mycobacterium tuberculosis H37Ra [9]: 0.49 µM (≈ 0.155 µg/mL)
- IC50 [8]: 2.7 ± 0.68 µM
- IC50 [4]: 4.35 ± 0.37 µM
- Ratio IC50 Miltef./IC50 Compd. (L. infantum) [4]: 7.2

Compound: C[N+]12CCCC[C@@H]1[C@H](C=C1c3ccccc3-c3ccccc31)CCC2 (stereo partly shown) [Compound 19]
- CC50 [1]: 82.7 ± 4.7 µM
- S.I. L. infantum [2]: 5.0
- S.I. L. tropica [2]: 7.9
- IC50 [3, 10]: 10.5 ± 2.69 µM
- Ratio IC50 Miltef./IC50 Compd. (L. tropica) [3]: 4.1
- MIC Mycobacterium tuberculosis H37Ra [9]: 83.9 µM
- IC50 [4]: 16.4 ± 0.59 µM
- Ratio IC50 Miltef./IC50 Compd. (L. infantum) [4]: 1.90

Compound: C[N+]12CCCC[C@@H]1[C@H](C=C1c3ccccc3CCc3ccccc31)CCC2.[I-] (stereo partly drawn) [Compound 20, (1S,9aR)-1-[(10,11-dihydro-5H-dibenzo[a,d][7]annulen-5-ylidene)methyl]-5-methyl-decahydroquinolizin-5-ium iodide]
- CC50 [1]: 89.9 ± 3.7 µM
- S.I. L. infantum [2]: 10.3
- S.I. L. tropica [2]: 12.5
- IC50 [3, 10]: 7.21 ± 3.52 µM
- Ratio IC50 Miltef./IC50 Compd. (L. tropica) [3]: 6.0
- IC50 [4]: 8.71 ± 0.68 µM
- Ratio IC50 Miltef./IC50 Compd. (L. infantum) [4]: 3.58
- melting point: 283 to 286 °C

Compound: CCCCCCCCCCCCCCCCOP(=O)([O-])OCC[N+](C)(C)C [Miltefosine, reference compound]
- IC50 [3, 10]: 43.3 ± 11.4 µM
- Ratio IC50 Miltef./IC50 Compd. (L. tropica) [3]: 1.0
- Ratio IC50 Miltef./IC50 Compd. (L. infantum) [4]: 1.0

Compound: NNC(=O)c1ccncc1 [isoniazide, reference compound]
- MIC Mycobacterium tuberculosis H37Ra [9]: 0.14 to 0.28 µM
